Results on 6 compounds are retold here after US20260034113A1, “THIADIAZOLONE DERIVATIVES, COMPOSITIONS AND USES THEREOF” (Danatlas Pharmaceuticals Co., Ltd., priority 2023, published 2026).

Read-outs that look alike come from different tables or passages of the source.

This experiment concerns the target PolQ (1-899) (Homo sapiens (Human), UniProt O75417). As to the kind of experiment: PolQ ATPase assay (ADP-Glo). It counts as biochemical. On the procedure: The ability of the compounds of the present disclosure to inhibit ATPase activity of PolQ (1-899) was determined using the assay described below.
PolQ ATPase activity was determined by ADP-Glo assay. 10-point dilution series of compounds were used in a 384 well format for the inhibition assays. PolQ (1-899) (1 nM) in assay buffer (20 mM Tris HCl (pH 8.0), 80 mM KCl, 10 mM MgCl2, 1 mM DTT, 0.01% BSA, 0.01% Tween, 5% glycerol) was transferred to the test wells (20 uL), except the low control wells (20 μL of assay buffer was added to the low control wells). The plate was then incubated at room temperature for 30 min. An equal volume (20 μL) of 100 μM ATP, 150 nM ssDNA containing 50 thymine bases in assay buffer was added to all the test wells. The plates were covered and left to incubate for 60 min. at room temperature before the addition of the ADP Glo detection reagents. After 60 min. incubation, transfer 5 μL reaction mix to another 384-well plate and add 5 μL ADP Glo and plates incubated for 60 min. before addition of 10 μL kinase detection reagent. After the addition of the kinase detection reagent, the plates were covered and incubated for 60 min. and read luminescence on Envision
Percent inhibition was calculated as follows:
[formula] • where “Max” is the high control (DMSO) and “Min” is the no enzyme control.
IC50 values were calculated using a four-parameter logistic curve fit using the following formula: […]
IC50 values were determined by fitting the data to the standard 4 parameters with Hill Slope using GraphPad Prism software.
(In general: In ADP-Glo the light output rises with the ADP produced.)

The mark [1] stands for this setting: inhibition of ATPase activity of PolQ (1-899), 1 nM enzyme, 100 μM ATP, 150 nM ssDNA, ADP-Glo.

As a reminder, the IC50 is the concentration that gives 50% inhibition. Low values mean higher potency, high ones lower potency.

Chain of PolQ (1-899) (O75417 1-899): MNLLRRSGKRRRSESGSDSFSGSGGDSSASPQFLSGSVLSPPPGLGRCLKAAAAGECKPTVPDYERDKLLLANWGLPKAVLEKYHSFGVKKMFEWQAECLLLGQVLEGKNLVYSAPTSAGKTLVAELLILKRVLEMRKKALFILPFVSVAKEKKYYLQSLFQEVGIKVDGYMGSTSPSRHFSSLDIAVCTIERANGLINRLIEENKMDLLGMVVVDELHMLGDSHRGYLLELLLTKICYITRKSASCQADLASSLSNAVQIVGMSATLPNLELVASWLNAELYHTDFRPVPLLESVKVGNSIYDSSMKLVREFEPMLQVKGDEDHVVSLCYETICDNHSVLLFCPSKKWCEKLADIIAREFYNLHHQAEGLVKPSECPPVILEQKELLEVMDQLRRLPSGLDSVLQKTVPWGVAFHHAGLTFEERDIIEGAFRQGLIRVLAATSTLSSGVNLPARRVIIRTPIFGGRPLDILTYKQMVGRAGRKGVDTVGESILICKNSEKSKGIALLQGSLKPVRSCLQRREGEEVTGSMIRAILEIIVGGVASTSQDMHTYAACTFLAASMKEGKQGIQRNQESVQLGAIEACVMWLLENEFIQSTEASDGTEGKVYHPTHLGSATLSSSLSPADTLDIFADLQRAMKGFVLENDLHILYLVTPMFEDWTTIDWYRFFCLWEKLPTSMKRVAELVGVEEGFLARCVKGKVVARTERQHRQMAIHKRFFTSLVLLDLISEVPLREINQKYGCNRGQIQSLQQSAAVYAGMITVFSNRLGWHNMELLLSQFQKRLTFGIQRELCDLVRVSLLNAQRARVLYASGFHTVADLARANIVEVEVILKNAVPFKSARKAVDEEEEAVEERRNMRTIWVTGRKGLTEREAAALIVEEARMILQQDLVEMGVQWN

Compound `COc1ccccc1-c1cc(C)ncc1C(=O)Nc1nn(CCCCO)c(=O)s1` [Example 24, N-(4-(4-Hydroxybutyl)-5-oxo-4,5-dihydro-1,3,4-thiadiazol-2-yl)-4-(2-methoxyphenyl)-6-methylnicotinamide] yielded a half-maximal inhibitory concentration (IC50) of 10 to 100 nM.

On to `COc1ccc(Cl)cc1-c1cc(C)ncc1C(=O)Nc1nn(CCCCO)c(=O)s1` [Example 25, 4-(5-Chloro-2-methoxyphenyl)-N-(4-(4-hydroxybutyl)-5-oxo-4,5-dihydro-1,3,4-thiadiazol-2-yl)-6-methylnicotinamide], for which the IC50 under setting [1] is less than 10 nM.

In turn, `COc1ccc(C(F)(F)F)c(F)c1-c1cc(C)ncc1C(=O)Nc1nn(CCCCO)c(=O)s1` [Example 27, 4-(2-Fluoro-6-methoxy-3-(trifluoromethyl)phenyl)-N-(4-(4-hydroxybutyl)-5-oxo-4,5-dihydro-1,3,4-thiadiazol-2-yl)-6-methylnicotinamide] yielded an IC50 under setting [1] of less than 10 nM. Consider `COc1ccc(C)c(F)c1-c1cc(C)ncc1C(=O)Nc1nn(CCCCO)c(=O)s1` [Example 28, 4-(2-Fluoro-6-methoxy-3-methylphenyl)-N-(4-(4-hydroxybutyl)-5-oxo-4,5-dihydro-1,3,4-thiadiazol-2-yl)-6-methylnicotinamide], for which the IC50 under setting [1] was less than 10 nM.

As to `COc1cnc(Cl)cc1-c1cc(C)ncc1C(=O)Nc1nn(CCCCO)c(=O)s1` [Example 29, 2′-Chloro-N-(4-(4-hydroxybutyl)-5-oxo-4,5-dihydro-1,3,4-thiadiazol-2-yl)-5′-methoxy-6-methyl-[4,4′-bipyridine]-3-carboxamide], the IC50 was in the range of 10 to 100 nM. As to `COc1ccc(Cl)c(F)c1-c1cc(-c2ccn(C)n2)ncc1C(=O)Nc1nn(CCCCO)c(=O)s1` [Example 30, 4-(3-Chloro-2-fluoro-6-methoxyphenyl)-N-(4-(4-hydroxybutyl)-5-oxo-4,5-dihydro-1,3,4-thiadiazol-2-yl)-6-(1-methyl-1H-pyrazol-3-yl)nicotinamide], the IC50 under setting [1] was less than 10 nM.
